ChEMBL document CHEMBL1201862, “PubChem BioAssay data set” (2004)
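These data come from cells grown in 96-well plates and exposed to compound for 48 hours at five concentrations. GI50 is the concentration that inhibits growth by half.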 The source made the active and inactive calls. Rule as the data show it: active = GI50 up to about 1.1 µM and inactive = higher.

Key:
Test in all cases: NCI-60 cell line screen, 48 h
UO-31 = test system: UO-31
HL-60 = test system: HL-60
Hs-578T = test system: Hs-578T
SNB-75 = test system: SNB-75
RPMI-8226 = test system: RPMI-8226
MCF7 = test system: MCF7
A498 = test system: A498
MDA-MB-435 = test system: MDA-MB-435
ACHN = test system: ACHN
SK-MEL-2 = test system: SK-MEL-2
786-0 = test system: 786-0
NCI-H23 = test system: NCI-H23
HCT-15 = test system: HCT-15
IGROV-1 = test system: IGROV-1
CAKI-1 = test system: CAKI-1
UACC-257 = test system: UACC-257
A549 = test system: A549
HCT-116 = test system: HCT-116
K562 = test system: K562

| SMILES | GI50 (UO-31) | GI50 (HL-60) | GI50 (Hs-578T) | GI50 (SNB-75) | GI50 (RPMI-8226) | GI50 (MCF7) | GI50 (A498) | GI50 (MDA-MB-435) | GI50 (ACHN) | GI50 (SK-MEL-2) | GI50 (786-0) | GI50 (NCI-H23) | GI50 (HCT-15) [µM] | GI50 (IGROV-1) | GI50 (CAKI-1) | GI50 (UACC-257) | GI50 (A549) | GI50 (HCT-116) | GI50 (K562) |
| --- | --- | --- | --- | --- | --- | --- | --- | --- | --- | --- | --- | --- | --- | --- | --- | --- | --- | --- | --- |
| O=C(Cn1c(C(=O)c2ccccc2)nc2ccccc21)c1ccccc1 | > 56.1 µM (inactive) | 7.1 µM (inactive) | 30.5 µM (inactive) | > 100 µM (inactive) | > 100 µM (inactive) | > 100 µM (inactive) | > 100 µM (inactive) | 3.72 µM (inactive) | > 100 µM (inactive) | > 100 µM (inactive) | > 63.8 µM (inactive) | > 100 µM (inactive) | > 100 | > 31.6 µM (inactive) | > 100 µM (inactive) | > 100 µM (inactive) | > 96.4 µM (inactive) | > 100 µM (inactive) | – |
| O=C1NC(=O)C2C1c1[nH]c3ccccc3c1C1CCCC12 (stereo not drawn) | 6.55 µM (inactive) | 0.573 µM (active) | – | 2.17 µM (inactive) | 3.41 µM (inactive) | – | 4.76 µM (inactive) | – | 22.3 µM (inactive) | – | 5.02 µM (inactive) | 3.79 µM (inactive) | 1.49 | 14.1 µM (inactive) | – | – | 0.916 µM (active) | – | 0.48 µM (active) |
| COc1ccc(NC(=O)CC/C(CC(=O)C(C)(C)C)=N\NC(=O)C(=O)NN)cc1 | > 100 µM (inactive) | > 100 µM (inactive) | – | > 100 µM (inactive) | > 100 µM (inactive) | – | > 100 µM (inactive) | – | > 100 µM (inactive) | > 100 µM (inactive) | > 100 µM (inactive) | > 100 µM (inactive) | > 100 | > 100 µM (inactive) | > 100 µM (inactive) | > 100 µM (inactive) | > 100 µM (inactive) | > 100 µM (inactive) | > 100 µM (inactive) |
| c1csc(-c2cscc2-c2cccs2)c1 | 58.2 µM (inactive) | 30.3 µM (inactive) | 54.8 µM (inactive) | 69.2 µM (inactive) | 43.6 µM (inactive) | 20.2 µM (inactive) | > 100 µM (inactive) | 33.4 µM (inactive) | > 100 µM (inactive) | – | 43.6 µM (inactive) | 28.2 µM (inactive) | 35.8 | 67.8 µM (inactive) | > 100 µM (inactive) | 95.1 µM (inactive) | 39.4 µM (inactive) | 29.8 µM (inactive) | 37.3 µM (inactive) |
| Cc1ccc(NC(=O)C(=O)C2C(=O)NC(=O)NC2=O)c(C)c1 | > 100 µM (inactive) | > 100 µM (inactive) | – | > 100 µM (inactive) | > 100 µM (inactive) | – | > 100 µM (inactive) | – | > 100 µM (inactive) | > 100 µM (inactive) | > 100 µM (inactive) | > 100 µM (inactive) | > 100 | > 100 µM (inactive) | > 100 µM (inactive) | > 100 µM (inactive) | > 100 µM (inactive) | > 100 µM (inactive) | > 100 µM (inactive) |
| CC(=O)OC1=C(CC(C)(C)C)C(=O)c2ccccc2C1=O | 33.4 µM (inactive) | 16 µM (inactive) | 14.5 µM (inactive) | 27.4 µM (inactive) | 17.1 µM (inactive) | 39.5 µM (inactive) | 13.5 µM (inactive) | 21.7 µM (inactive) | 35.6 µM (inactive) | 31.8 µM (inactive) | 39.6 µM (inactive) | 15.6 µM (inactive) | 31.8 | 34.2 µM (inactive) | 48.4 µM (inactive) | 38.5 µM (inactive) | – | 25.8 µM (inactive) | 18.5 µM (inactive) |
| CN(C(=O)C12C3C4C1C1C2C3C41I)C(C)(C)C (stereo not drawn) | > 67.1 µM (inactive) | 33 µM (inactive) | – | > 65.6 µM (inactive) | > 100 µM (inactive) | – | 53.8 µM (inactive) | – | 98.9 µM (inactive) | > 100 µM (inactive) | > 100 µM (inactive) | > 96.6 µM (inactive) | 63.1 | > 90.8 µM (inactive) | > 100 µM (inactive) | > 88.5 µM (inactive) | > 100 µM (inactive) | 70.1 µM (inactive) | – |
| [O-][n+]1c2ccccc2[n+]([O-])c2ccccc21 | > 100 µM (inactive) | 11.5 µM (inactive) | > 100 µM (inactive) | > 100 µM (inactive) | 16.8 µM (inactive) | 48.1 µM (inactive) | > 100 µM (inactive) | > 100 µM (inactive) | 61 µM (inactive) | > 100 µM (inactive) | > 100 µM (inactive) | 24 µM (inactive) | 68.2 | 46.5 µM (inactive) | > 100 µM (inactive) | > 100 µM (inactive) | 38 µM (inactive) | > 100 µM (inactive) | > 100 µM (inactive) |
| Cc1nc(N)sc1C(=O)/C=C/c1ccc([N+](=O)[O-])cc1 | > 100 µM (inactive) | > 100 µM (inactive) | – | 64.6 µM (inactive) | > 100 µM (inactive) | – | > 100 µM (inactive) | – | – | > 100 µM (inactive) | > 100 µM (inactive) | > 100 µM (inactive) | > 100 | > 100 µM (inactive) | > 100 µM (inactive) | > 100 µM (inactive) | > 100 µM (inactive) | – | > 100 µM (inactive) |
| O=c1[nH]cnc2c(COCCO)c[nH]c12 | > 100 µM (inactive) | > 100 µM (inactive) | – | > 100 µM (inactive) | > 100 µM (inactive) | – | > 100 µM (inactive) | – | > 100 µM (inactive) | > 100 µM (inactive) | > 100 µM (inactive) | > 100 µM (inactive) | > 100 | > 100 µM (inactive) | > 100 µM (inactive) | > 100 µM (inactive) | – | – | > 100 µM (inactive) |
| CN(C)/C=C/C(=CC=[N+](C)C)/C=C/N(C)C.[O-][Cl+3]([O-])([O-])[O-] | > 100 µM (inactive) | > 100 µM (inactive) | – | – | > 100 µM (inactive) | – | 31.3 µM (inactive) | – | > 100 µM (inactive) | > 100 µM (inactive) | > 100 µM (inactive) | > 100 µM (inactive) | – | > 100 µM (inactive) | 70.3 µM (inactive) | > 100 µM (inactive) | > 100 µM (inactive) | > 100 µM (inactive) | > 100 µM (inactive) |
| COC(=O)C1=CC2C(=O)OC1CC2C#N (stereo not drawn) | > 100 µM (inactive) | > 100 µM (inactive) | – | > 100 µM (inactive) | > 100 µM (inactive) | – | > 100 µM (inactive) | – | > 100 µM (inactive) | – | > 100 µM (inactive) | > 100 µM (inactive) | – | > 100 µM (inactive) | > 100 µM (inactive) | > 100 µM (inactive) | > 100 µM (inactive) | > 100 µM (inactive) | > 100 µM (inactive) |
| C=C1CC(CC(=O)C(C)CC2CC(=C)C(=O)O2)OC1=O (stereo not drawn) | > 100 µM (inactive) | 14 µM (inactive) | – | 61.4 µM (inactive) | – | – | 46.5 µM (inactive) | – | 18.6 µM (inactive) | 9.35 µM (inactive) | 20.3 µM (inactive) | 18.8 µM (inactive) | 18.1 | 32.8 µM (inactive) | – | 16.4 µM (inactive) | 52 µM (inactive) | 12.1 µM (inactive) | 22.7 µM (inactive) |
| CC(C)NCCCC(C)Nc1ccnc2ccc3nn(C)nc3c12 (stereo not drawn) | 33.7 µM (inactive) | 42.4 µM (inactive) | – | > 100 µM (inactive) | 74.8 µM (inactive) | – | > 100 µM (inactive) | – | 61.2 µM (inactive) | – | 44.2 µM (inactive) | > 100 µM (inactive) | – | > 100 µM (inactive) | 60.5 µM (inactive) | 74.5 µM (inactive) | 62.1 µM (inactive) | 34.8 µM (inactive) | 33.2 µM (inactive) |
| O[C@H]1[C@H](O)[C@H](O)CN2CCC[C@@H](O)[C@H]12 | > 100 µM (inactive) | > 100 µM (inactive) | > 100 µM (inactive) | 81.1 µM (inactive) | > 100 µM (inactive) | > 100 µM (inactive) | > 100 µM (inactive) | > 100 µM (inactive) | > 100 µM (inactive) | > 100 µM (inactive) | > 100 µM (inactive) | > 100 µM (inactive) | > 100 | > 100 µM (inactive) | > 100 µM (inactive) | > 100 µM (inactive) | > 100 µM (inactive) | > 100 µM (inactive) | > 100 µM (inactive) |
| O=C(/C=C/c1ccc(Cl)cc1)c1ccc(Cl)c(Cl)c1 | 28.5 µM (inactive) | 3.44 µM (inactive) | – | 19.6 µM (inactive) | 2.95 µM (inactive) | – | 34.4 µM (inactive) | – | 29 µM (inactive) | 23.4 µM (inactive) | 25.5 µM (inactive) | 9.4 µM (inactive) | 26 | 22.3 µM (inactive) | 18.1 µM (inactive) | 29.6 µM (inactive) | 23.7 µM (inactive) | 4.99 µM (inactive) | 21.7 µM (inactive) |
| c1cncc(C2c3[nH]c4ccccc4c3CCN2CCCN2CCCCC2)c1 (stereo not drawn) | 81.1 µM (inactive) | > 100 µM (inactive) | – | > 100 µM (inactive) | > 100 µM (inactive) | – | > 100 µM (inactive) | – | > 100 µM (inactive) | > 100 µM (inactive) | > 100 µM (inactive) | > 100 µM (inactive) | > 100 | > 100 µM (inactive) | > 100 µM (inactive) | 60.7 µM (inactive) | > 100 µM (inactive) | > 100 µM (inactive) | > 100 µM (inactive) |
| CCCCCCCC(=O)OCC1OC(n2cc(F)c(=O)[nH]c2=O)C(NC(=O)OCc2ccccc2)C(O)C1O (stereo not drawn) | > 100 µM (inactive) | 40.3 µM (inactive) | – | 29.3 µM (inactive) | 26.4 µM (inactive) | – | > 100 µM (inactive) | – | > 100 µM (inactive) | 20.4 µM (inactive) | > 100 µM (inactive) | > 100 µM (inactive) | > 100 | > 100 µM (inactive) | > 100 µM (inactive) | > 100 µM (inactive) | > 100 µM (inactive) | > 100 µM (inactive) | 28.2 µM (inactive) |
